In patent US11286236B2, “Compound, agent and composition for the suppression of cancer growth” (Vector Vitale IP LLC, priority 2018, dated 2022):
Structures can show the parent of a compound that is named as a salt.

System: Ehrlich ascites carcinoma
Test: In vivo antitumor activity against Ehrlich ascites carcinoma
Parameters: species or system mouse
Experimental: Outbred mice were administered Ehrlich ascites carcinoma cells (EAC) intraperitoneally (IP) at a dose of 2.5×10^5 cells in 0.25 ml of normal saline solution. The compounds under study, 1)^85RbeE2, was dissolved in deuterium-depleted water and 2) Cisplatin (Teva, the Netherlands), was dissolved in normal saline solution. The drugs were administered starting from the first day after mice were inoculated with tumor cells, using a microinjection syringe, at the following doses: 1)^85Rbe-E2 at a dose of 750 μg/mouse (weighing 20 g) in a volume of 0.3 ml as 3 IP injections (1 injection—250 μg/mouse) on the 1st, 4th and 7th day of the experiment; 2) Cisplatin at a dose of 4.5 mg/kg or 1.5 mg/kg as 3 IP injections on the 2nd, 5th and 8th day of the experiment. The dynamics of tumor growth in the experimental animals was observed (based on the volume of ascites in the peritoneal cavity) after the tumor cell inoculation and for 31 days of the experiment. On the 15th and 22nd day after IP administration of tumor cells, all the fluid accumulated in each animal's abdomen was extracted and the total number of live/dead cells in each mouse was determined. In addition, some mice were used to assess a survival rate of animals in the experiment.
Laboratory animals. 84 outbred female 10 to 12-week old mice weighing 22-26 g were used in the experimental study. The animals were obtained from the animal vivarium at R.E. Kavetsky IEPOR NASU. […] The animals were maintained in plastic cages, under natural light-dark cycles, fed standard food and allowed free access to food and tap water.
Tumor model. Ascites strain of Ehrlich ascites carcinoma maintained on outbred mice obtained from the cell and tissue line bank at R.E. Kavetsky IEPOR NASU was used in the experiment. To prepare the strain for injection, tumor cells derived from ascitic fluid were placed in normal saline solution and cellularity of the suspension was assessed in a hemocytometer and adjusted to a concentration of 1·10^6 cells/ml with saline solution. The tumor cells were inoculated by injecting 250 mcl of cell suspension from the tumor (0.25×10^6 cells/mouse) into the peritoneal cavity of laboratory animals.
The drugs were administered IP every other day, using a microinjection syringe, at doses specified above as a series of 3 injections of each compound according to the following scheme: ^85Rbe-E2 at a dose of 250 μg/mouse weighing 20 g+CP at a dose of […] 24 hours later (for groups (EAC+CP(4.5)) and (EAC+^85Rbe-E2+CP(4.5)) or […] (for groups (EAC+CP(1.5)) and (EAC+^85Rbe-E2+CP(1.5)) in a volume of 0.25 ml of saline solution (6 injections in total during 8 days).
The tumor growth dynamics in the laboratory animals was observed by daily control of the volume of ascitic fluid in the abdominal cavity of mice starting from the tumor inoculation and for 31 days of the experiment. The dynamics of ascites growth both in control and experimental groups was assessed visually using a 10-point scale, where 0 points were the absence of tumor growth and 10 points were the maximum increase in the size of the abdomen of the mouse with ascites (one point was 0.6 cm of the mean diameter of the mouse abdomen filled with the fluid).
Furthermore, on the 15th and 22nd day after intraperitoneal injection of tumor cells, all ascitic fluid was removed from the abdomen in 2 or 3 animals from each group by washing their peritoneal cavity with saline solution, and live/dead EAC cells were counted in each mouse using the traditional vital dye trypan blue (HyClon, USA) and a hemocytometer.
X=((a)/80)×10^6, where X is the number of cells in 1 ml and a is the number of cells counted in 5 large diagonal squares of the hemocytometer.
7 or 8 mice from each group were used to assess their survival in the experiment. The total lifespan observation time was 31 days from the moment of inoculation of tumor cells.
Statistical data processing. […]

[1] = 85Rbe-E2 750 μg/mouse IP total, alone, 14 mice per group
[2] = Day 15, 85Rbe-E2 750 μg/mouse IP total, alone
[3] = Day 22, 85Rbe-E2 750 μg/mouse IP total, alone
[4] = day 15, 85Rbe-E2 750 μg/mouse IP total, alone
[5] = day 17, 85Rbe-E2 750 μg/mouse IP total, alone
[6] = day 22, 85Rbe-E2 750 μg/mouse IP total, alone
[7] = day 24, 85Rbe-E2 750 μg/mouse IP total, alone
[8] = day 27, 85Rbe-E2 750 μg/mouse IP total, alone
[9] = day 29, 85Rbe-E2 750 μg/mouse IP total, alone
[10] = day 31, 85Rbe-E2 750 μg/mouse IP total, alone

Cc1ccc(S(=O)(=O)Nc2ccccc2NC(=O)c2ccccc2)cc1 [^85Rbe − E2, ^85Rb-enriched rubidium salt of N-benzoyl-N′-(4-toluenesulfonyl)-o-phenylenediamine]
Animals without tumor, % (85Rbe-E2 750 μg/mouse IP total, alone): 0%
Number of animals in the group with tumor [1]: 14
Number of animals in the group without tumor [1]: 0
Last day with statistically significant inhibition of EAC growth vs control (85Rbe-E2 alone): 15 days
Suppression of carcinoma growth vs control, average (85Rbe-E2 alone, by the 15th day after inoculation): 18%
Number of dead cells/mouse, % [2]: 4.3 ± 1.5%
Number of live cells/mouse, ×10^6 (M ± m) [2]: 1917 ± 408 ×10^6
Volume of ascites [2]: 6.5 ± 2.9 mL
Number of dead cells/mouse, % [3]: 15.4 ± 3.6%
Number of live cells/mouse, ×10^6 (M ± m) [3]: 2062 ± 438 ×10^6
Volume of ascites [3]: 16.4 ± 4.8 mL
Survival, percent of mice (day 0, 85Rbe-E2 750 μg/mouse IP total, alone): 100%
Size of mouse abdomen, points (day 9, 85Rbe-E2 750 μg/mouse IP total, alone): 4.4 ± 0.2 points
Size of mouse abdomen, points (day 13, 85Rbe-E2 750 μg/mouse IP total, alone): 6 ± 0.3 points
Size of mouse abdomen, points [4]: 6.5 ± 0.3 points
Survival, percent of mice [4]: 100%
Size of mouse abdomen, points [5]: 8 ± 0.6 points
Survival, percent of mice [5]: 85.7%
Survival, percent of mice (day 19, 85Rbe-E2 750 μg/mouse IP total, alone): 85.7%
Size of mouse abdomen, points (day 20, 85Rbe-E2 750 μg/mouse IP total, alone): 9 ± 0.4 points
Size of mouse abdomen, points [6]: 9.5 ± 0.4 points
Survival, percent of mice [6]: 85.7%
Size of mouse abdomen, points [7]: 10 points
Survival, percent of mice [7]: 85.7%
Survival, percent of mice (day 25, 85Rbe-E2 750 μg/mouse IP total, alone): 71%
Survival, percent of mice (day 26, 85Rbe-E2 750 μg/mouse IP total, alone): 71%
Size of mouse abdomen, points [8]: 10 points
Survival, percent of mice [8]: 57%
Survival, percent of mice (day 28, 85Rbe-E2 750 μg/mouse IP total, alone): 43%
Size of mouse abdomen, points [9]: 10 points
Survival, percent of mice [9]: 29%
Size of mouse abdomen, points [10]: 10 points
Survival, percent of mice [10]: 14%
Effect on the survival rate of mice (series of IP injections of 85Rbe-E2 alone): did not have a significant effect
